In PMC12274840 (The Journal of Biological Chemistry, 2025):
Converted amounts (≈) assume the structure as drawn. Where two headings read alike, the source gives them in different places.

Experiments:
Format in all cases: cell-based
[1] = system: E. coli KA797 cells carrying pUK21 vector without the β-lactamase gene; test: microbe, parasite or virus in culture; details: Escherichia coli; antibiotic alone; pUK21 without β-lactamase gene; read-out: MIC
[2] = system: E. coli KA797 cells carrying TEM-1 position 105 library; details: for Fi MEM AVG: average of replicates
[3] = system: E. coli KA797 cells carrying pUK21 with CTX-M-14 WT (Tat); test: microbe, parasite or virus in culture; details: Escherichia coli, antibiotic alone
[4] = system: E. coli KA797 cells carrying NmcA position 105 library

For `C[C@@H](O)[C@H]1C(=O)N2C(C(=O)O)=C(S[C@@H]3CN[C@H](C(=O)N(C)C)C3)[C@H](C)[C@H]12` [meropenem], the MIC [1] was 0.05 µg/mL (≈ 0.13 µM), the “Fi MEM AVG” value ([2]; AA 105 Ala) was 0.062 and the “Fi MEM 1” value ([2]; AA 105 Ala, replicate 1) was 0.046. The “Fi MEM 2” value ([2]; AA 105 Ala, replicate 2) was 0.488, the “Fi MEM 3” value ([2]; AA 105 Ala, replicate 3) was -0.350 and the “Fi MEM AVG” value ([2]; AA 105 Arg) was 0.048. The “Fi MEM 1” value ([2]; AA 105 Arg, replicate 1) was 0.163, the “Fi MEM 2” value ([2]; AA 105 Arg, replicate 2) was 0.269 and the “Fi MEM 3” value ([2]; AA 105 Arg, replicate 3) was -0.287. The “Fi MEM AVG” value ([2]; AA 105 Asn) was -0.031, the “Fi MEM 1” value ([2]; AA 105 Asn, replicate 1) was -0.022 and the “Fi MEM 2” value ([2]; AA 105 Asn, replicate 2) was 0.493. For the same compound, the “Fi MEM 3” value ([2]; AA 105 Asn, replicate 3) was -0.563, the “Fi MEM AVG” value ([2]; AA 105 Asp) was -0.366 and the “Fi MEM 1” value ([2]; AA 105 Asp, replicate 1) was -1.030. For the same compound, the “Fi MEM 2” value ([2]; AA 105 Asp, replicate 2) was 0.356, the “Fi MEM 3” value ([2]; AA 105 Asp, replicate 3) was -0.424 and the “Fi MEM AVG” value ([2]; AA 105 Cys) was 0.031. The “Fi MEM 1” value ([2]; AA 105 Cys, replicate 1) was 0.333, the “Fi MEM 2” value ([2]; AA 105 Cys, replicate 2) was 0.230 and the “Fi MEM 3” value ([2]; AA 105 Cys, replicate 3) was -0.470. The “Fi MEM AVG” value ([2]; AA 105 Gln) was -0.069, the “Fi MEM 1” value ([2]; AA 105 Gln, replicate 1) was -0.210 and the “Fi MEM 2” value ([2]; AA 105 Gln, replicate 2) was 0.084. For the same compound, the “Fi MEM 3” value ([2]; AA 105 Gln, replicate 3) was -0.080, the “Fi MEM AVG” value ([2]; AA 105 Glu) was -0.063 and the “Fi MEM 1” value ([2]; AA 105 Glu, replicate 1) was -0.084. For the same compound, the “Fi MEM 2” value ([2]; AA 105 Glu, replicate 2) was 0.140, the “Fi MEM 3” value ([2]; AA 105 Glu, replicate 3) was -0.245 and the “Fi MEM AVG” value ([2]; AA 105 Gly) was -0.130. For the same compound, the “Fi MEM 1” value ([2]; AA 105 Gly, replicate 1) was -0.195, the “Fi MEM 2” value ([2]; AA 105 Gly, replicate 2) was 0.032 and the “Fi MEM 3” value ([2]; AA 105 Gly, replicate 3) was -0.226. For the same compound, the “Fi MEM AVG” value ([2]; AA 105 His) was -0.172, the “Fi MEM 1” value ([2]; AA 105 His, replicate 1) was -0.391 and the “Fi MEM 2” value ([2]; AA 105 His, replicate 2) was 0.351. The “Fi MEM 3” value ([2]; AA 105 His, replicate 3) was -0.475, the “Fi MEM AVG” value ([2]; AA 105 Ile) was 0.078 and the “Fi MEM 1” value ([2]; AA 105 Ile, replicate 1) was 0.231. For the same compound, the “Fi MEM 2” value ([2]; AA 105 Ile, replicate 2) was 0.143, the “Fi MEM 3” value ([2]; AA 105 Ile, replicate 3) was -0.140 and the “Fi MEM AVG” value ([2]; AA 105 Leu) was -0.036. For the same compound, the “Fi MEM 1” value ([2]; AA 105 Leu, replicate 1) was -0.102, the “Fi MEM 2” value ([2]; AA 105 Leu, replicate 2) was 0.170 and the “Fi MEM 3” value ([2]; AA 105 Leu, replicate 3) was -0.177. For the same compound, the “Fi MEM AVG” value ([2]; AA 105 Lys) was -0.052, the “Fi MEM 1” value ([2]; AA 105 Lys, replicate 1) was -0.122 and the “Fi MEM 2” value ([2]; AA 105 Lys, replicate 2) was 0.122. For the same compound, the “Fi MEM 3” value ([2]; AA 105 Lys, replicate 3) was -0.155, the “Fi MEM AVG” value ([2]; AA 105 Met) was -0.379 and the “Fi MEM 1” value ([2]; AA 105 Met, replicate 1) was -0.840. For the same compound, the “Fi MEM 2” value ([2]; AA 105 Met, replicate 2) was 0.139, the “Fi MEM 3” value ([2]; AA 105 Met, replicate 3) was -0.436 and the “Fi MEM AVG” value ([2]; AA 105 Phe) was -0.175. For the same compound, the “Fi MEM 1” value ([2]; AA 105 Phe, replicate 1) was 0.171, the “Fi MEM 2” value ([2]; AA 105 Phe, replicate 2) was -0.315 and the “Fi MEM 3” value ([2]; AA 105 Phe, replicate 3) was -0.381. For the same compound, the “Fi MEM AVG” value ([2]; AA 105 Pro) was -0.026, the “Fi MEM 1” value ([2]; AA 105 Pro, replicate 1) was 0.015 and the “Fi MEM 2” value ([2]; AA 105 Pro, replicate 2) was 0.091. For the same compound, the “Fi MEM 3” value ([2]; AA 105 Pro, replicate 3) was -0.184, the “Fi MEM AVG” value ([2]; AA 105 Ser) was -0.010 and the “Fi MEM 1” value ([2]; AA 105 Ser, replicate 1) was 0.139. The “Fi MEM 2” value ([2]; AA 105 Ser, replicate 2) was 0.033, the “Fi MEM 3” value ([2]; AA 105 Ser, replicate 3) was -0.203 and the “Fi MEM AVG” value ([2]; AA 105 Thr) was -0.084. The “Fi MEM 1” value ([2]; AA 105 Thr, replicate 1) was -0.289, the “Fi MEM 2” value ([2]; AA 105 Thr, replicate 2) was 0.235 and the “Fi MEM 3” value ([2]; AA 105 Thr, replicate 3) was -0.199. For the same compound, the “Fi MEM AVG” value ([2]; AA 105 Trp) was -0.176, the “Fi MEM 1” value ([2]; AA 105 Trp, replicate 1) was -0.657 and the “Fi MEM 2” value ([2]; AA 105 Trp, replicate 2) was 0.184. The “Fi MEM 3” value ([2]; AA 105 Trp, replicate 3) was -0.056, the “Fi MEM AVG” value ([2]; AA 105 Tyr) was 0.000 and the “Fi MEM 1” value ([2]; AA 105 Tyr, replicate 1) was 0.000. For the same compound, the “Fi MEM 2” value ([2]; AA 105 Tyr, replicate 2) was 0.000, the “Fi MEM 3” value ([2]; AA 105 Tyr, replicate 3) was 0.000 and the “Fi MEM AVG” value ([2]; AA 105 Val) was -0.088. The “Fi MEM 1” value ([2]; AA 105 Val, replicate 1) was -0.115, the “Fi MEM 2” value ([2]; AA 105 Val, replicate 2) was 0.193 and the “Fi MEM 3” value ([2]; AA 105 Val, replicate 3) was -0.342. The “WT abs Fi 1” value ([2]; absolute fitness of TEM-1 WT, MEM, replicate 1) was 0.006, the “WT abs Fi 2” value ([2]; absolute fitness of TEM-1 WT, MEM, replicate 2) was -0.204 and the “WT abs Fi 3” value ([2]; absolute fitness of TEM-1 WT, MEM, replicate 3) was 0.439. For the same compound, the MIC [3] was 0.1 µg/mL (≈ 0.261 µM), the “Fi (relative fitness), Replicate 1” value ([4]; NmcA AA 105 Ala) was -0.381 and the “Fi AVG (average fitness of replicates)” value ([4]; NmcA AA 105 Ala) was -0.261. For the same compound, the “Significance of average fitness” value ([4]; NmcA AA 105 Ala) was “-”, the “Fi (relative fitness), Replicate 1” value ([4]; NmcA AA 105 Arg) was 0.092 and the “Fi AVG (average fitness of replicates)” value ([4]; NmcA AA 105 Arg) was 0.048. The “Fi (relative fitness), Replicate 1” value ([4]; NmcA AA 105 Asn) was 0.031, the “Fi AVG (average fitness of replicates)” value ([4]; NmcA AA 105 Asn) was 0.087 and the “Fi (relative fitness), Replicate 1” value ([4]; NmcA AA 105 Asp) was -0.205. The “Fi AVG (average fitness of replicates)” value ([4]; NmcA AA 105 Asp) was -0.182, the “Significance of average fitness” value ([4]; NmcA AA 105 Asp) was “-” and the “Fi (relative fitness), Replicate 1” value ([4]; NmcA AA 105 Cys) was -0.468. The “Fi AVG (average fitness of replicates)” value ([4]; NmcA AA 105 Cys) was -0.282, the “Significance of average fitness” value ([4]; NmcA AA 105 Cys) was “-” and the “Fi (relative fitness), Replicate 1” value ([4]; NmcA AA 105 Gln) was 0.037. The “Fi AVG (average fitness of replicates)” value ([4]; NmcA AA 105 Gln) was 0.055, the “Fi (relative fitness), Replicate 1” value ([4]; NmcA AA 105 Glu) was -0.016 and the “Fi AVG (average fitness of replicates)” value ([4]; NmcA AA 105 Glu) was -0.061. For the same compound, the “Fi (relative fitness), Replicate 1” value ([4]; NmcA AA 105 Gly) was 0.015, the “Fi AVG (average fitness of replicates)” value ([4]; NmcA AA 105 Gly) was -0.027 and the “Fi (relative fitness), Replicate 1” value ([4]; NmcA AA 105 His) was 0.000. The “Fi AVG (average fitness of replicates)” value ([4]; NmcA AA 105 His) was 0.000, the “Fi AVG (average fitness of replicates)” value ([4]; NmcA AA 105 Ile) was 0.105 and the “Significance of average fitness” value ([4]; NmcA AA 105 Ile) was “+”. For the same compound, the “Fi (relative fitness), Replicate 1” value ([4]; NmcA AA 105 Leu) was -0.100, the “Fi AVG (average fitness of replicates)” value ([4]; NmcA AA 105 Leu) was -0.100 and the “Significance of average fitness” value ([4]; NmcA AA 105 Leu) was “-”. For the same compound, the “Fi (relative fitness), Replicate 1” value ([4]; NmcA AA 105 Lys) was -0.081, the “Fi AVG (average fitness of replicates)” value ([4]; NmcA AA 105 Lys) was -0.032 and the “Fi (relative fitness), Replicate 1” value ([4]; NmcA AA 105 Met) was -0.00142. The “Fi AVG (average fitness of replicates)” value ([4]; NmcA AA 105 Met) was 0.024, the “Fi (relative fitness), Replicate 1” value ([4]; NmcA AA 105 Phe) was 0.169 and the “Fi AVG (average fitness of replicates)” value ([4]; NmcA AA 105 Phe) was 0.140. The “Significance of average fitness” value ([4]; NmcA AA 105 Phe) was “+”, the “Fi (relative fitness), Replicate 1” value ([4]; NmcA AA 105 Pro) was -0.067 and the “Fi AVG (average fitness of replicates)” value ([4]; NmcA AA 105 Pro) was -0.060. The “Significance of average fitness” value ([4]; NmcA AA 105 Pro) was “-”, the “Fi (relative fitness), Replicate 1” value ([4]; NmcA AA 105 Ser) was -0.066 and the “Fi AVG (average fitness of replicates)” value ([4]; NmcA AA 105 Ser) was -0.071. For the same compound, the “Significance of average fitness” value ([4]; NmcA AA 105 Ser) was “-”, the “Fi (relative fitness), Replicate 1” value ([4]; NmcA AA 105 Thr) was -0.118 and the “Fi AVG (average fitness of replicates)” value ([4]; NmcA AA 105 Thr) was -0.120. The “Significance of average fitness” value ([4]; NmcA AA 105 Thr) was “-”, the “Fi (relative fitness), Replicate 1” value ([4]; NmcA AA 105 Trp) was 0.105 and the “Fi AVG (average fitness of replicates)” value ([4]; NmcA AA 105 Trp) was 0.078. The “Fi (relative fitness), Replicate 1” value ([4]; NmcA AA 105 Tyr) was -0.154, the “Fi AVG (average fitness of replicates)” value ([4]; NmcA AA 105 Tyr) was -0.163 and the “Significance of average fitness” value ([4]; NmcA AA 105 Tyr) was “-”. For the same compound, the “Fi (relative fitness), Replicate 1” value ([4]; NmcA AA 105 Val) was -0.043, the “Fi AVG (average fitness of replicates)” value ([4]; NmcA AA 105 Val) was -0.035 and the “WT abs Fi 1 (absolute fitness)” value ([4]; NmcA WT, replicate 1) was 0.00454. For the same compound, the “WT abs Fi 2 (absolute fitness)” value ([4]; NmcA WT, replicate 2) was 0.092 and the “WT abs Fi 3 (absolute fitness)” value ([4]; NmcA WT, replicate 3) was 0.017.
